How the values were obtained:
MRP7 (ABCC10) [1] = target: T1, MRP7 (ABCC10) (Homo sapiens, UniProt Q5T3U5); test: [3H]-paclitaxel accumulation in HEK/MRP7 cells; assay type: cell-based; conditions: 4 h treatment; 0.01 µM [3H]-paclitaxel (methods; Figure 5 legend prints 0.1 µM); 37°C; inhibitor of efflux
T1 construct: MRP7 expression vector stably transfected into HEK293 cells (HEK/MRP7); empty-vector HEK/pcDNA as control
T1 sequence (Q5T3U5 1-1492): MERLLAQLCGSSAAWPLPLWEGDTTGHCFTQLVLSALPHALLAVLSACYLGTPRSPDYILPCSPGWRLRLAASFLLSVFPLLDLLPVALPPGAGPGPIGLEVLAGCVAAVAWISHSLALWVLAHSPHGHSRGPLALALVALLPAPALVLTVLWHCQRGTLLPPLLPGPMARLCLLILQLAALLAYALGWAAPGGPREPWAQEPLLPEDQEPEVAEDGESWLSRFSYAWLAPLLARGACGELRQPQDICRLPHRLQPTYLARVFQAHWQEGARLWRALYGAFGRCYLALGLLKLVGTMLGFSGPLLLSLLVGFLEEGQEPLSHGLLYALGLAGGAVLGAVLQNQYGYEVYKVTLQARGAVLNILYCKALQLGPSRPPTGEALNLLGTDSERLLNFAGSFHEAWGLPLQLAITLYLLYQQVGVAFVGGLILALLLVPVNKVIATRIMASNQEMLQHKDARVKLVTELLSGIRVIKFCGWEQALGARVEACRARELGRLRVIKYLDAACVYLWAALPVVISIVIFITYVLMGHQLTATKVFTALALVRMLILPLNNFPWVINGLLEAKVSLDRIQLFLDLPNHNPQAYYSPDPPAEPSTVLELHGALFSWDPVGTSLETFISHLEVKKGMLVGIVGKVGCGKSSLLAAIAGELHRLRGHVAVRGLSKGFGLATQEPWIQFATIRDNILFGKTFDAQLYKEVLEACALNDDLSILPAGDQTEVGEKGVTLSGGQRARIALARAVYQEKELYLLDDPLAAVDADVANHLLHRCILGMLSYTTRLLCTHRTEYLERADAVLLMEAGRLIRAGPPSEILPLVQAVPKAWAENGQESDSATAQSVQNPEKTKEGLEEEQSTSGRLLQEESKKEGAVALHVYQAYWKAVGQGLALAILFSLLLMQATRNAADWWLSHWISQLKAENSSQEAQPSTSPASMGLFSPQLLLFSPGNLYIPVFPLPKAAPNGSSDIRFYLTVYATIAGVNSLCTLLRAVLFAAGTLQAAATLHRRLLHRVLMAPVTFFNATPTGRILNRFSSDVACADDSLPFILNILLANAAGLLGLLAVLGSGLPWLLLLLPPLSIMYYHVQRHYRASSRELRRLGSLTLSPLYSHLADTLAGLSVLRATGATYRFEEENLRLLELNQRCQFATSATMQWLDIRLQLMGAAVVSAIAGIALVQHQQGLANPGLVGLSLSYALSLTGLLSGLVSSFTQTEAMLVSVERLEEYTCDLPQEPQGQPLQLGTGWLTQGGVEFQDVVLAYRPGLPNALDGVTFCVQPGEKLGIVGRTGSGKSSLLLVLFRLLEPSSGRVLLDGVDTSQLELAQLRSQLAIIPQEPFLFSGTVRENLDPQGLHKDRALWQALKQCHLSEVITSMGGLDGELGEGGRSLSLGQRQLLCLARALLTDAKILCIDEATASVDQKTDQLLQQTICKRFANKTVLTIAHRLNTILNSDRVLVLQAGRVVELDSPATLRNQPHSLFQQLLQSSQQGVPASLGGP

MRP7 (ABCC10) [2] = target: T1, MRP7 (ABCC10); test: cellular efflux time course, HEK/MRP7 versus HEK/pcDNA; assay type: cell-based; conditions: labelled compound (3H); 0.01 µM; 37°C; 0-120 min

## COc1cc2c(cc1OC)CN(CCc1ccc(NC(=O)c3cc(OC)c(OC)cc3NC(=O)c3cnc4ccccc4c3)cc1)CC2 [Tariquidar]
MRP7 (ABCC10) [1]
  fold [3H]-paclitaxel accumulation at 0.3 μM: 1.8 fold

## CC(=O)O[C@H]1C(=O)[C@@]2(C)[C@H]([C@H](OC(=O)c3ccccc3)[C@]3(O)C[C@H](OC(=O)[C@H](O)[C@@H](NC(=O)c4ccccc4)c4ccccc4)C(C)=C1C3(C)C)[C@]1(OC(C)=O)CO[C@@H]1C[C@@H]2O [[^3H]-paclitaxel]
MRP7 (ABCC10) [2]
  cellular efflux time course, HEK/MRP7 versus HEK/pcDNA: HEK/MRP7 cells, but not the parental HEK/pcDNA cells, rapidly effluxed [^3H]-paclitaxel

Source: PMC3564796, “Reversal of MRP7 (ABCC10)-Mediated Multidrug Resistance by Tariquidar” (PLoS ONE, 2013)
